Assay results from patent US20240238301A1, “COMPOSITIONS AND METHODS FOR REDUCED TOXICITY IN TRANSPLANTATION USING JANUS KINASE (JAK) INHIBITORS” (THE REGENTS OF THE UNIVERSITY OF COLORADO, A BODY CORPORATE, priority 2021, published 2024).

What was measured:
[1] = manufacturer reported; cited from earlier work
[2] = test system: Balb/cJ recipients and C57BL/6 donors; assay: MHC-mismatched allogeneic BMT, donor cell engraftment by FACS of peripheral blood (Balb/cJ recipients, C57BL/6 donors); assay type: in vivo, mice; conditions: 4 Gy RIC TBI, 90 mg/kg oral gavage twice daily Day -5 through Day +2, 4 weeks post-BMT, n=7
Protocol: (§1) In one exemplary method, mouse models of human allogeneic bone marrow transplant events were prepared. In brief, major histocompatibility complex (MHC)-mismatched bone marrow transplants (BMTs, HCT)—which model human allogeneic BMTs—were performed in mice. Mice used in this exemplary method were the C57BL/6 mouse strain (which express the MHC marker H2K^b) and the Balb/cJ strain (which express the MHC marker H2K^d). Both mouse strains were maintained by homozygous breeding according to established vivarium practices. Mice approximately 6-10 weeks of age were used for both recipients and donors. Donors and recipients were matched in gender (male recipient mice receive cells from male donors while female recipients receive cells from female donors).
(§2) In another exemplary method, BMT was performed by isolating bone marrow cells from the bones of euthanized donor mice using a method similar to previous methods (Amend et al., J Vis Exp. 2016 Apr. 14; (110):53936). […] Viable cells (which excluded Trypan Blue) were counted using a hematocytometer. […] Stained cells were resuspended in PBS and evaluated via Fluorescent-Activated Cell Sorting (FACS) on a Cytek Aurora cytometer. FACS data was analyzed using FloJo software. […] Cells which were negative for Ter119 (RBCs) and positive for CD45 (hematopoietic cells) were further analyzed. […]

[3] = test system: C57BL/6 recipients and Balb/cJ donors; assay: MHC-mismatched allogeneic BMT, donor cell engraftment by FACS of peripheral blood (C57BL/6 recipients, Balb/cJ donors); assay type: in vivo, mice; conditions: 6.5 Gy RIC TBI
Protocol: as §1, §2

[4] = test system: recipient and donor NK and T cells (mouse spleen cells); assay: Effect on recipient versus donor NK and T cells in spleen after BMT (FACS); assay type: in vivo, mice; conditions: spleen cells after BMT (data not shown)
Protocol: In another exemplary method, BMTs were performed and assessed to determine the effects of JAK inhibitors on recipient compared to donor NK and T cells as outlined in FIG. 6. In this exemplary method, BMTs were performed in mice as described in Example 1 wherein C57BL/6 mice were the transplant donors while Balb/cJ mice served as stem cell recipients. Recipient mice were treated with Ruxolitinib and given RIC TBI followed by BMT as previously described in the examples herein. On Day +1 and Day +3 post-BMT, a portion of the recipient mice were euthanized, and their spleens were harvested. The spleen cells were prepared into a single cell suspension, subjected to RBC lysis, stained (using previously referenced markers in addition to T-cell subset markers, CD4 and CD8) and analyzed by FACS as described in the examples herein.

SMILES: N#CC[C@H](C1CCCC1)n1cc(-c2ncnc3[nH]ccc23)cn1 [Ruxolitinib phosphate]
- solubility in DMSO [1]: 200 mg/mL

SMILES: N#CC[C@H](C1CCCC1)n1cc(-c2ncnc3[nH]ccc23)cn1 [ruxolitinib]
- donor cell engraftment (mice engrafted) [2]: 100%
- donor cell engraftment (mice engrafted) ([3]; 180 mg/kg Day -5 through Day +2, 4 weeks post-BMT, n=6): 100%
- donor cell engraftment (mice engrafted) ([3]; 270 mg/kg Day -5 through Day +2, 4 weeks post-BMT, n=3): 100%
- effect on donor T cells [4]: no significant effect
